Source: US5986131A, “RXR selective ligands” (Hoffmann-La Roche Inc., priority 1997, dated 1999)
Entries after “also recorded” stand apart in the source; their conditions may differ.

How the values were obtained:
RXRα = target: T1, RXRα (Homo sapiens, UniProt P19793); experiment: RXRα binding; settings: Table 2
T1 sequence (P19793 1-462): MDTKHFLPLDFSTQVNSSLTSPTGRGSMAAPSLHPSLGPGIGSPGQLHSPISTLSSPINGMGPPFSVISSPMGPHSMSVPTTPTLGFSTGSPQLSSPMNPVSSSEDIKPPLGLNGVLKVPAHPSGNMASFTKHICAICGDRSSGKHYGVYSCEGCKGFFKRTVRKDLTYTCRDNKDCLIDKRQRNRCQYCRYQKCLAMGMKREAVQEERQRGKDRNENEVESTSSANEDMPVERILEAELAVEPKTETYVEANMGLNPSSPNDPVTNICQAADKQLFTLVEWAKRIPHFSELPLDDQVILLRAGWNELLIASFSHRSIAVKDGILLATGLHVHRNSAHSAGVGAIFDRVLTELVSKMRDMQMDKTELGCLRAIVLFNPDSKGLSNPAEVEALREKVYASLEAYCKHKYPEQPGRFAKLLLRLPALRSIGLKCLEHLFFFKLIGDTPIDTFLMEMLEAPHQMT
Description: (§1) Methods essentially as described in those publications were used to determine the binding and transactivation properties of retinoids reported in the Examples herein.

Rhino mouse utricles = experiment: Rhino mouse utricle reduction activity; assay type: in vivo, Rhino mice; settings: topical; for Utricle Size: 3 weeks; for Utricle size % Change from Control: ns = not statistically significant, others p<0.05
Description: Compounds were dissolved in 100% acetone and stored at 4° C. for the duration of the experiment under nitrogen. […] One day after the last dose, the mice were sacrificed by CO2 inhalation. […] The epidermis was then separated from the dermis.
The samples were kept in each of the above solutions for 2 hours. The skin samples were removed from the xylene and mounted on glass microscope slides. Image analysis, using the Ultimage image analysis software, was used to determine the mean diameter and area of utricles. Approximately 5 fields per sample were examined, for an average of 150 utricles per mouse measured.

mouse B cell = experiment: Inhibition of LPS-induced mouse B cell proliferation (3H-thymidine incorporation); assay type: cell-based
Description: Single cell suspensions of mouse spleen were set up in culture in flatbottomed 96 well Microtiter trays, 0.2 ml/well of a 2×10^5 /ml cell suspension in IMDM supplemented with 10% foetal calf serum, HEPES, antibiotics and 50 μM 2-mercaptoethanol. The specific B cell mitogen E. coli lipopolysaccharide (DIFCO) (LPS) was added at 50μg/ml. Cultures were incubated at 37° C. in a humidified atmosphere and 5% CO2.
The retinoids to be tested were first titrated in triplicate from 10 nM to 10 μM and left throughout the whole culture period. […] Cyclosporin A (Sandoz AG) was used as a reference compound (from 1 nM to 1 μM).
The cultures were then harvested on glass fiber filters and the radioactivity imcorporated into DNA measured in a β-liquid scintillation counter (Betaplate, Wallac Oy, Turku, Finland).
The results are expressed as % of the response of untreated cultures. […] Retinoids were added to the cultures at the beginning of the culture period.

[1] = tested on: Hamster Ear Sebaceous Gland; experiment: Effect on size of sebaceous glands of Golden Syrian hamsters; assay type: in vivo; set-up: Sebaceous Gland Size: unit not given here; settings: 4 weeks topical dosing
Description: Charles River Golden Syrian male hamsters were given the desired dose in acetone. The compounds were stored at 4° C. protected from light. Fresh solutions were made up weekly.
Hamsters were dosed daily for five days, rested for two days, and dosed again for five days until 20 doses were given. The volume of solution was 50 microliters per ear.
Hamsters were sacrificed by CO2 inhalation, and the ears removed for histological evaluation. One ear was removed and the ventral surface separated from the rest of the ear. A 2 mm punch was removed 5 mm from the tip of the ear and stained in 0.1 % Sudan Black B dissolved in 100% propylene glycol overnight. After destaining, the size of sebaceous glands was quantified with a Donsanto Image Analysis System.
Data are given as the average area of 80-120 sebaceous glands per dose, as percent of the control (solvent-treated) sections.

human sebaceous cells = experiment: Antiproliferative activity on human sebocytes in vitro; assay type: cell-based
Description: Sebaceous cells were isolated from adult human sebaceous glands by a combination of enzymatic and mechanical methods (Doran et al., 1991). The cells were cultured in Iscove's medium containing 10% fetal calf serum and 4 μg/ml dexamethasone on a layer of growth-arrested 3T3 mouse fibroblasts. Cells were plated in medium without the test compound and then given test compound in fresh medium 24-48 hours after the initial plating. The cultures were given fresh medium, containing the test compound, every 48 hours. On the day of harvesting, the cultures were rinsed with 0.03% EDTA in PBS, to remove only the 3T3 fibroblasts. followed by incubation in 0.05% trypsin/0.03% EDTA. The cells were suspended, mixed vigorously to prepare a single cell suspension and counted in a hemocytometer.
Stock solutions of compounds were made up as 10^-2 M solutions in 100% DMSO and stored at -20° C. in the dark. Compounds in solution were brought to room temperature and used by diluting directly into complete medium to the appropriate concentration.
The compounds of Example 12, Example 2, and Example 4 were tested for their effects on inhibiting the proliferation of first passage human sebaceous cells in vitro after 10 days of exposure to drug.

RARα = target: T2, RARα (Homo sapiens, UniProt P10276); experiment: RARα binding; settings: Table 2; read-out: RARα binding IC50
T2 sequence (P10276 1-462): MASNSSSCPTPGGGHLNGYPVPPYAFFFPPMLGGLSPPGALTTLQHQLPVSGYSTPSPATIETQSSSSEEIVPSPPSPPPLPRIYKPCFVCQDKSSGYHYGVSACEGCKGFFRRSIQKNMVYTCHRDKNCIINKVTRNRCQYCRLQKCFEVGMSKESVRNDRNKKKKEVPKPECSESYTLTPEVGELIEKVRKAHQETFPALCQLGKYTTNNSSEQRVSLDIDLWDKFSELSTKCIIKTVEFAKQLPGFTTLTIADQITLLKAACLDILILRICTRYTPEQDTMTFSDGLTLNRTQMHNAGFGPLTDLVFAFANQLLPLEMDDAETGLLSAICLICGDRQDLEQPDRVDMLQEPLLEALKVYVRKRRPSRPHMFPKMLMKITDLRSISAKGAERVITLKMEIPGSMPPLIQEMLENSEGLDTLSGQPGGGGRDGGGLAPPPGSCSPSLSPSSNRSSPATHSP
Description: as §1

CC1=C(/C=C/C2=C(/C=C/C(C)=C/C(=O)O)CCCC2)C(C)(C)CCC1 [Example 4, (2E,4E)-3-Methyl-5-(2-((E)-2(2,6,6-trimethyl-1-cyclohexen-1-yl)ethenyl)-1-cyclohexen-1-yl)-2,4-pentadienoic acid] was tested, and the IC50 (RXRα) was 92 nM, the “Utricle Size” value (Rhino mouse utricles; 0.1 μg/day) was 9843 ± 565 μm^2 / utricle and the “Utricle size % Change from Control” value (Rhino mouse utricles; 0.1 μg/day) was “+1%”. The “Utricle Size” value (Rhino mouse utricles; 1 μg/day) was 9491 ± 507 μm^2 / utricle, the “Utricle size % Change from Control” value (Rhino mouse utricles; 1 μg/day) was -3% and the “Utricle Size” value (Rhino mouse utricles; 10 μg/day) was 8951 ± 964 μm^2 / utricle. The “Utricle size % Change from Control” value (Rhino mouse utricles; 10 μg/day) was -8%, the “Utricle Size” value (Rhino mouse utricles; 100 μg/day) was 5916 ± 992 μm^2 / utricle and the “Utricle size % Change from Control” value (Rhino mouse utricles; 100 μg/day) was -39%. For the same molecule, the “potency relative to all-trans RA” value (mouse B cell; LPS induced mouse B cell proliferation) was 1/100, the IC50 (mouse B cell; Mus musculus, B-cell, 72 h, alone, FIG. 4, day 3) was 100 nM and the “effect on B cell response at low doses” value (mouse B cell; day 4, low doses (=IC50 at day 3)) was “slightly enhancing the response”. For the same molecule, the “potentiation of inhibitory activity of all-trans RA on mouse B cell proliferation” value (mouse B cell; in combination with all-trans RA) was “potentiated the inhibitory activity of all-trans RA; also recorded: potentiates the effect of all-trans RA”, the “inhibition by combination with 1 nM RA” value (mouse B cell; with 1 nM RA, day 4, FIG. 6) was “inhibition on the order of that induced by 10 nM RA” and the “potentiation of effect of 1 nM all-trans RA” value (mouse B cell; with 1 nM all-trans RA, day 3, FIG. 5) was “potentiation of the effect of 1 nM RA to the level observed with 10 nM RA”. The “excess RXR ligand over all-trans RA for potentiation” value (mouse B cell; with all-trans RA) was 10 to 30 fold, the “magnitude of the potentiation” value (mouse B cell; with all-trans RA) was “roughly tenfold” and the “Sebaceous Gland Size” value ([1]; 1 μg/day) was 13237 ± 1491. The “Sebaceous gland size % Change from Control” value (shortened to “Sebaceous gland size % Change”) ([1]; 1 μg/day, ns = not statistically significant) was -20%, the “Sebaceous Gland Size” value ([1]; 10 μg/day) was 17046 ± 4667 and the “Sebaceous gland size % Change” value ([1]; 10 μg/day, ns = not statistically significant) was “+3%”. For the same molecule, the “Sebaceous Gland Size” value ([1]; 100 μg/day) was 13043 ± 1577, the “Sebaceous gland size % Change” value ([1]; 100 μg/day) was -21% and the “inhibition of sebocyte proliferation (in words)” value (human sebaceous cells) was “poor dose response curve; also recorded: much weaker than 13-cis-retinoic acid”. For the same molecule, the IC50 (human sebaceous cells; Homo sapiens, 240 h, first passage cells, 10 days of exposure, read-out: Inhibition of human sebaceous cell proliferation in vitro IC50) was > 1000 nM and the IC50 (RARα) was > 10000 nM.
